{
  "source": "patent US9039761B2",
  "about": "“Ocular implant delivery assemblies with distal caps” (Allergan, Inc., priority 2006, dated 2015)",
  "origin": "cited, not measured here",
  "conditions": "efficacy in vivo; Goodman and Gilman's 8th Edition p. 1447",
  "data": [
    {"compound": "C[C@]12CCC(=O)C=C1CC[C@@H]1[C@@H]2[C@@H](O)C[C@@]2(C)[C@H]1CC[C@]2(O)C(=O)CO", "note": "[hydrocortisone]", "values": [
      {"measurement": "potency relative to dexamethasone (fold less potent)", "result": "approximately twenty-five"}
    ]}
  ]
}
